# Ends that are not written are not given here.
# How the values were obtained:
# [1] = system: antibodies in sera from HCV-seropositive donors; test: ELISA with HCV antibody-positive sera (biotinylated peptides on streptavidin- or avidin-coated plates, unbiotinylated peptides coated directly); type: binding, human
# Procedure, shortened: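 Read-out is OD at 450 nm after HRP goat anti-human Ig and TMB development, following 1 h at 37° C. with seropositive or negative sera diluted 1:100 (or 20-fold). Antigen was either unbiotinylated peptide adsorbed on plastic (pH 9.6 carbonate, 2–5 or 3 μg/ml) or biotinylated peptide at 1 μg/ml captured on streptavidin-coated wells, with casein blocking.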
# [2] = ELISA with seronegative / negative control sera (specificity); type: binding, human
# Procedure, shortened: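 Specificity readout is OD at 450 nm (HRP goat anti-human Ig, TMB/H2O2, sulfuric acid stop), with ≥0.250 counted positive. Seronegative donor sera (typically 1:100, 1 h, 37° C) were applied to casein-blocked wells coated with peptide directly or via streptavidin capture of biotinylated peptide.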
sequence,measurement,setting,value
PQRKTKRNTNRRPQDVKFPG,optical density (450 nm),"[1]; Table 4C, serum 8241, 20-fold dilution",0.444
same,optical density (450 nm),"[1]; Table 4C, serum 8242, 20-fold dilution",1.682
same,optical density (450 nm),"[1]; Table 4C, serum 8243, 20-fold dilution",2.181
same,optical density (450 nm),"[1]; Table 4C, serum 8247, 20-fold dilution",1.518
same,optical density (450 nm),"[1]; Table 4C, serum 8250, 20-fold dilution",0.110
same,optical density (450 nm),"[1]; Table 4C, serum 8271, 20-fold dilution",0.912
same,optical density (450 nm),"[1]; Table 4C, serum 8273, 20-fold dilution",2.468
same,optical density (450 nm),"[1]; Table 4C, serum 8274, 20-fold dilution",2.700
same,optical density (450 nm),"[1]; Table 4C, serum 8275, 20-fold dilution",1.489
same,optical density (450 nm),"[1]; Table 4C, serum 8276, 20-fold dilution",2.133
same,optical density (450 nm),"[1]; Table 4C, serum 8277, 20-fold dilution",1.771
same,optical density (450 nm),"[1]; Table 4C, serum 8278, 20-fold dilution",1.907
same,optical density (450 nm),"[1]; Table 5, sample 8242 (positive), peptide concentration 0.01 micrograms per milliliter, listed as Unbiotinylated HCV peptide II",0.051
same,optical density (450 nm),"[1]; Table 5, sample 8242 (positive), peptide concentration 0.03 micrograms per milliliter, listed as Unbiotinylated HCV peptide II",0.048
same,optical density (450 nm),"[1]; Table 5, sample 8242 (positive), peptide concentration 0.1 micrograms per milliliter, listed as Unbiotinylated HCV peptide II",0.058
same,optical density (450 nm),"[1]; Table 5, sample 8242 (positive), peptide concentration 0.3 micrograms per milliliter, listed as Unbiotinylated HCV peptide II",0.234
same,optical density (450 nm),"[1]; Table 5, sample 8242 (positive), peptide concentration 1.0 micrograms per milliliter, listed as Unbiotinylated HCV peptide II",0.408
same,optical density (450 nm),"[1]; Table 5, sample 8242 (positive), peptide concentration 3.0 micrograms per milliliter, listed as Unbiotinylated HCV peptide II",0.539
same,optical density (450 nm),"[1]; Table 5, sample 8243 (positive), peptide concentration 0.01 micrograms per milliliter, listed as Unbiotinylated HCV peptide II",0.056
same,optical density (450 nm),"[1]; Table 5, sample 8243 (positive), peptide concentration 0.03 micrograms per milliliter, listed as Unbiotinylated HCV peptide II",0.057
same,optical density (450 nm),"[1]; Table 5, sample 8243 (positive), peptide concentration 0.1 micrograms per milliliter, listed as Unbiotinylated HCV peptide II",0.181
same,optical density (450 nm),"[1]; Table 5, sample 8243 (positive), peptide concentration 0.3 micrograms per milliliter, listed as Unbiotinylated HCV peptide II",0.831
same,optical density (450 nm),"[1]; Table 5, sample 8243 (positive), peptide concentration 1.0 micrograms per milliliter, listed as Unbiotinylated HCV peptide II",1.221
same,optical density (450 nm),"[1]; Table 5, sample 8243 (positive), peptide concentration 3.0 micrograms per milliliter, listed as Unbiotinylated HCV peptide II",1.341
same,optical density (450 nm),"[1]; Table 5, sample 8318 (positive), peptide concentration 0.01 micrograms per milliliter, listed as Unbiotinylated HCV peptide II",0.048
same,optical density (450 nm),"[1]; Table 5, sample 8318 (positive), peptide concentration 0.03 micrograms per milliliter, listed as Unbiotinylated HCV peptide II",0.095
same,optical density (450 nm),"[1]; Table 5, sample 8318 (positive), peptide concentration 0.1 micrograms per milliliter, listed as Unbiotinylated HCV peptide II",0.181
same,optical density (450 nm),"[1]; Table 5, sample 8318 (positive), peptide concentration 0.3 micrograms per milliliter, listed as Unbiotinylated HCV peptide II",0.347
same,optical density (450 nm),"[1]; Table 5, sample 8318 (positive), peptide concentration 1.0 micrograms per milliliter, listed as Unbiotinylated HCV peptide II",0.626
same,optical density (450 nm),"[1]; Table 5, sample 8318 (positive), peptide concentration 3.0 micrograms per milliliter, listed as Unbiotinylated HCV peptide II",0.791
same,optical density (450 nm),"[1]; Table 5, sample 8320 (positive), peptide concentration 0.01 micrograms per milliliter, listed as Unbiotinylated HCV peptide II",0.479
same,optical density (450 nm),"[1]; Table 5, sample 8320 (positive), peptide concentration 0.03 micrograms per milliliter, listed as Unbiotinylated HCV peptide II",1.272
same,optical density (450 nm),"[1]; Table 5, sample 8320 (positive), peptide concentration 0.1 micrograms per milliliter, listed as Unbiotinylated HCV peptide II",1.828
same,optical density (450 nm),"[1]; Table 5, sample 8320 (positive), peptide concentration 0.3 micrograms per milliliter, listed as Unbiotinylated HCV peptide II",2.004
same,optical density (450 nm),"[1]; Table 5, sample 8320 (positive), peptide concentration 1.0 micrograms per milliliter, listed as Unbiotinylated HCV peptide II",2.163
same,optical density (450 nm),"[1]; Table 5, sample 8320 (positive), peptide concentration 3.0 micrograms per milliliter, listed as Unbiotinylated HCV peptide II",2.278
same,optical density (450 nm),"[2]; Table 4C, negative serum",0.047
same,optical density (450 nm),"[2]; Table 5, sample 1747 (negative), peptide concentration 0.01 micrograms per milliliter, listed as Unbiotinylated HCV peptide II",0.041
same,optical density (450 nm),"[2]; Table 5, sample 1747 (negative), peptide concentration 0.03 micrograms per milliliter, listed as Unbiotinylated HCV peptide II",0.043
same,optical density (450 nm),"[2]; Table 5, sample 1747 (negative), peptide concentration 0.1 micrograms per milliliter, listed as Unbiotinylated HCV peptide II",0.044
same,optical density (450 nm),"[2]; Table 5, sample 1747 (negative), peptide concentration 0.3 micrograms per milliliter, listed as Unbiotinylated HCV peptide II",0.041
same,optical density (450 nm),"[2]; Table 5, sample 1747 (negative), peptide concentration 1.0 micrograms per milliliter, listed as Unbiotinylated HCV peptide II",0.046
same,optical density (450 nm),"[2]; Table 5, sample 1747 (negative), peptide concentration 3.0 micrograms per milliliter, listed as Unbiotinylated HCV peptide II",0.049
same,optical density (450 nm),"[2]; Table 5, sample 1781 (negative), peptide concentration 0.01 micrograms per milliliter, listed as Unbiotinylated HCV peptide II",0.046
same,optical density (450 nm),"[2]; Table 5, sample 1781 (negative), peptide concentration 0.03 micrograms per milliliter, listed as Unbiotinylated HCV peptide II",0.053
same,optical density (450 nm),"[2]; Table 5, sample 1781 (negative), peptide concentration 0.1 micrograms per milliliter, listed as Unbiotinylated HCV peptide II",0.046
same,optical density (450 nm),"[2]; Table 5, sample 1781 (negative), peptide concentration 0.3 micrograms per milliliter, listed as Unbiotinylated HCV peptide II",0.045
same,optical density (450 nm),"[2]; Table 5, sample 1781 (negative), peptide concentration 1.0 micrograms per milliliter, listed as Unbiotinylated HCV peptide II",0.053
same,optical density (450 nm),"[2]; Table 5, sample 1781 (negative), peptide concentration 3.0 micrograms per milliliter, listed as Unbiotinylated HCV peptide II",0.053
IIPDREVLYREFDEMEECSQ,optical density (450 nm),"[1]; Table 4F, serum 8315, 20-fold dilution",2.614
same,optical density (450 nm),"[1]; Table 4F, serum 8316, 20-fold dilution",0.133
same,optical density (450 nm),"[1]; Table 4F, serum 8317, 20-fold dilution",0.855
same,optical density (450 nm),"[1]; Table 4F, serum 8318, 20-fold dilution",1.965
same,optical density (450 nm),"[1]; Table 4F, serum 8320, 20-fold dilution",0.721
same,optical density (450 nm),"[1]; Table 4F, serum 8321, 20-fold dilution",0.283
same,optical density (450 nm),"[1]; Table 4F, serum 8326, 20-fold dilution",2.219
same,optical density (450 nm),"[1]; Table 5, sample 8242 (positive), peptide concentration 0.01 micrograms per milliliter, listed as Unbiotinylated HCV peptide IX",0.049
same,optical density (450 nm),"[1]; Table 5, sample 8242 (positive), peptide concentration 0.03 micrograms per milliliter, listed as Unbiotinylated HCV peptide IX",0.047
same,optical density (450 nm),"[1]; Table 5, sample 8242 (positive), peptide concentration 0.1 micrograms per milliliter, listed as Unbiotinylated HCV peptide IX",0.046
same,optical density (450 nm),"[1]; Table 5, sample 8242 (positive), peptide concentration 0.3 micrograms per milliliter, listed as Unbiotinylated HCV peptide IX",0.048
same,optical density (450 nm),"[1]; Table 5, sample 8242 (positive), peptide concentration 1.0 micrograms per milliliter, listed as Unbiotinylated HCV peptide IX",0.052
same,optical density (450 nm),"[1]; Table 5, sample 8242 (positive), peptide concentration 3.0 micrograms per milliliter, listed as Unbiotinylated HCV peptide IX",0.059
same,optical density (450 nm),"[1]; Table 5, sample 8243 (positive), peptide concentration 0.01 micrograms per milliliter, listed as Unbiotinylated HCV peptide IX",0.054
same,optical density (450 nm),"[1]; Table 5, sample 8243 (positive), peptide concentration 0.03 micrograms per milliliter, listed as Unbiotinylated HCV peptide IX",0.051
same,optical density (450 nm),"[1]; Table 5, sample 8243 (positive), peptide concentration 0.1 micrograms per milliliter, listed as Unbiotinylated HCV peptide IX",0.051
same,optical density (450 nm),"[1]; Table 5, sample 8243 (positive), peptide concentration 0.3 micrograms per milliliter, listed as Unbiotinylated HCV peptide IX",0.051
same,optical density (450 nm),"[1]; Table 5, sample 8243 (positive), peptide concentration 1.0 micrograms per milliliter, listed as Unbiotinylated HCV peptide IX",0.053
same,optical density (450 nm),"[1]; Table 5, sample 8243 (positive), peptide concentration 3.0 micrograms per milliliter, listed as Unbiotinylated HCV peptide IX",0.063
same,optical density (450 nm),"[1]; Table 5, sample 8320 (positive), peptide concentration 0.01 micrograms per milliliter, listed as Unbiotinylated HCV peptide IX",0.059
same,optical density (450 nm),"[1]; Table 5, sample 8320 (positive), peptide concentration 0.03 micrograms per milliliter, listed as Unbiotinylated HCV peptide IX",0.057
same,optical density (450 nm),"[1]; Table 5, sample 8320 (positive), peptide concentration 0.1 micrograms per milliliter, listed as Unbiotinylated HCV peptide IX",0.063
same,optical density (450 nm),"[1]; Table 5, sample 8320 (positive), peptide concentration 0.3 micrograms per milliliter, listed as Unbiotinylated HCV peptide IX",0.122
same,optical density (450 nm),"[1]; Table 5, sample 8320 (positive), peptide concentration 1.0 micrograms per milliliter, listed as Unbiotinylated HCV peptide IX",0.093
same,optical density (450 nm),"[1]; Table 5, sample 8320 (positive), peptide concentration 3.0 micrograms per milliliter, listed as Unbiotinylated HCV peptide IX",0.129
same,optical density (450 nm),"[1]; Table 5, sample 8326 (positive), peptide concentration 0.01 micrograms per milliliter, listed as Unbiotinylated HCV peptide IX",0.049
same,optical density (450 nm),"[1]; Table 5, sample 8326 (positive), peptide concentration 0.03 micrograms per milliliter, listed as Unbiotinylated HCV peptide IX",0.051
same,optical density (450 nm),"[1]; Table 5, sample 8326 (positive), peptide concentration 0.1 micrograms per milliliter, listed as Unbiotinylated HCV peptide IX",0.068
same,optical density (450 nm),"[1]; Table 5, sample 8326 (positive), peptide concentration 0.3 micrograms per milliliter, listed as Unbiotinylated HCV peptide IX",0.078
same,optical density (450 nm),"[1]; Table 5, sample 8326 (positive), peptide concentration 1.0 micrograms per milliliter, listed as Unbiotinylated HCV peptide IX",0.068
same,optical density (450 nm),"[1]; Table 5, sample 8326 (positive), peptide concentration 3.0 micrograms per milliliter, listed as Unbiotinylated HCV peptide IX",0.084
same,optical density (450 nm),"[2]; Table 4F, negative serum",0.052
same,optical density (450 nm),"[2]; Table 5, sample 1747 (negative), peptide concentration 0.01 micrograms per milliliter, listed as Unbiotinylated HCV peptide IX",0.045
same,optical density (450 nm),"[2]; Table 5, sample 1747 (negative), peptide concentration 0.03 micrograms per milliliter, listed as Unbiotinylated HCV peptide IX",0.045
same,optical density (450 nm),"[2]; Table 5, sample 1747 (negative), peptide concentration 0.1 micrograms per milliliter, listed as Unbiotinylated HCV peptide IX",0.045
same,optical density (450 nm),"[2]; Table 5, sample 1747 (negative), peptide concentration 0.3 micrograms per milliliter, listed as Unbiotinylated HCV peptide IX",0.044
same,optical density (450 nm),"[2]; Table 5, sample 1747 (negative), peptide concentration 1.0 micrograms per milliliter, listed as Unbiotinylated HCV peptide IX",0.046
same,optical density (450 nm),"[2]; Table 5, sample 1747 (negative), peptide concentration 3.0 micrograms per milliliter, listed as Unbiotinylated HCV peptide IX",0.046
same,optical density (450 nm),"[2]; Table 5, sample 1781 (negative), peptide concentration 0.01 micrograms per milliliter, listed as Unbiotinylated HCV peptide IX",0.051
same,optical density (450 nm),"[2]; Table 5, sample 1781 (negative), peptide concentration 0.03 micrograms per milliliter, listed as Unbiotinylated HCV peptide IX",0.049
same,optical density (450 nm),"[2]; Table 5, sample 1781 (negative), peptide concentration 0.1 micrograms per milliliter, listed as Unbiotinylated HCV peptide IX",0.052
same,optical density (450 nm),"[2]; Table 5, sample 1781 (negative), peptide concentration 0.3 micrograms per milliliter",0.051
same,optical density (450 nm),"[2]; Table 5, sample 1781 (negative), peptide concentration 1.0 micrograms per milliliter, listed as Unbiotinylated HCV peptide IX",0.052
same,optical density (450 nm),"[2]; Table 5, sample 1781 (negative), peptide concentration 3.0 micrograms per milliliter",0.053

# Source: US6667387B1, “HCV core peptides” (priority 1992, dated 2003)
